Experiment [1] concerns the target T1, Glucocorticoid receptor (Homo sapiens, UniProt P04150).
T1 sequence (P04150 whole entry): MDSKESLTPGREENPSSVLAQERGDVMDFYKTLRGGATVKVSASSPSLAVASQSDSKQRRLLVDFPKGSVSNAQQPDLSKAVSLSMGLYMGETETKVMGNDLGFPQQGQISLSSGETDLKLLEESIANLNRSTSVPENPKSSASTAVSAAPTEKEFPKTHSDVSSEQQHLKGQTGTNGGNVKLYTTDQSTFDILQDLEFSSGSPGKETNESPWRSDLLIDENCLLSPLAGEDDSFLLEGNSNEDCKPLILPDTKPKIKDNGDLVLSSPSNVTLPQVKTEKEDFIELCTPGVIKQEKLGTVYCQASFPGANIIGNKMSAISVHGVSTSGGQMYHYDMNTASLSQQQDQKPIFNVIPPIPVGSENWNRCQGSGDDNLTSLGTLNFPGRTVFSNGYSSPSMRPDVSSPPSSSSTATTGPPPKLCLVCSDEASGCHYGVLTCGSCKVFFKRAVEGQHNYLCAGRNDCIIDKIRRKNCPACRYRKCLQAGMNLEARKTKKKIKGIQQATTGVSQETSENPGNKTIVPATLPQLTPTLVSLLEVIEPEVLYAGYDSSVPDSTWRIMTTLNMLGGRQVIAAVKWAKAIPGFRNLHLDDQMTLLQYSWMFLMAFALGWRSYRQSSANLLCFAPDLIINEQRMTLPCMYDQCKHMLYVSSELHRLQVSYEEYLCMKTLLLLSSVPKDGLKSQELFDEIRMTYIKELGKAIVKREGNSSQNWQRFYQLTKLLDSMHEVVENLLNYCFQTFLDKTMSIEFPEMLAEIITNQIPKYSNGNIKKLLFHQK
Description: Binding affinity to human GR

In experiment [2] the target is T1, Glucocorticoid receptor. Nature of the experiment: Transrepression activity at glucocorticoid receptor in human SW1353 cells assessed as repression of IL-1-induced MMP-13 production after 24 hrs by ELISA. In kind it is cell-based. (ELISA stands for enzyme-linked immunosorbent assay.)
Experiment [3] deals with T2, Progesterone receptor (Homo sapiens, UniProt P06401).
T2 sequence (P06401 whole entry): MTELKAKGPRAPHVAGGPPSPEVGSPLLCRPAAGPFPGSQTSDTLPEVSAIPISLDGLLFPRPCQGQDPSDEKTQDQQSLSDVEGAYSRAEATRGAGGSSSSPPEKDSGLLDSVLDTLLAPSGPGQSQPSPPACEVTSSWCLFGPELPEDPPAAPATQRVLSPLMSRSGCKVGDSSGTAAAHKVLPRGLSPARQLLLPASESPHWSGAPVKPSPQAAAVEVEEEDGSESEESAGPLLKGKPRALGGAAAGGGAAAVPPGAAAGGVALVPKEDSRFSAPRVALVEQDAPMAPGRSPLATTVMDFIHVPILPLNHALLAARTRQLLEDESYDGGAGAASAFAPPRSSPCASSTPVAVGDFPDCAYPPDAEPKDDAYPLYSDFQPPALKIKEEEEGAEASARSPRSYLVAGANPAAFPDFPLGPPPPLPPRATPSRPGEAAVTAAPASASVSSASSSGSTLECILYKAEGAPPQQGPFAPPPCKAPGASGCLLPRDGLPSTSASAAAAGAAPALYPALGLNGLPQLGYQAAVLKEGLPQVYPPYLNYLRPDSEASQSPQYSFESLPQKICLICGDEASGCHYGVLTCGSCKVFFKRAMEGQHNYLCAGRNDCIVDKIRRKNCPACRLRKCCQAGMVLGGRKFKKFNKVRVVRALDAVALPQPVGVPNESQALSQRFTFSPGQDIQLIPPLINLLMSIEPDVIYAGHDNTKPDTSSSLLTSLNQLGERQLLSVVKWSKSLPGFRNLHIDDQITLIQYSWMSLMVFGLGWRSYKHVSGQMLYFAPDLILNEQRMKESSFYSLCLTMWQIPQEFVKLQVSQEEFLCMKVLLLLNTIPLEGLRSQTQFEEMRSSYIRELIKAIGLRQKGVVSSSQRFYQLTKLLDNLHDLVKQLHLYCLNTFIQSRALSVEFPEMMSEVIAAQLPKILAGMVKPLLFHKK
Nature of the experiment: Binding affinity to human PR.

The target in experiment [4] is T3, Estrogen receptor (Homo sapiens, UniProt P03372).
T3 sequence (P03372 whole entry): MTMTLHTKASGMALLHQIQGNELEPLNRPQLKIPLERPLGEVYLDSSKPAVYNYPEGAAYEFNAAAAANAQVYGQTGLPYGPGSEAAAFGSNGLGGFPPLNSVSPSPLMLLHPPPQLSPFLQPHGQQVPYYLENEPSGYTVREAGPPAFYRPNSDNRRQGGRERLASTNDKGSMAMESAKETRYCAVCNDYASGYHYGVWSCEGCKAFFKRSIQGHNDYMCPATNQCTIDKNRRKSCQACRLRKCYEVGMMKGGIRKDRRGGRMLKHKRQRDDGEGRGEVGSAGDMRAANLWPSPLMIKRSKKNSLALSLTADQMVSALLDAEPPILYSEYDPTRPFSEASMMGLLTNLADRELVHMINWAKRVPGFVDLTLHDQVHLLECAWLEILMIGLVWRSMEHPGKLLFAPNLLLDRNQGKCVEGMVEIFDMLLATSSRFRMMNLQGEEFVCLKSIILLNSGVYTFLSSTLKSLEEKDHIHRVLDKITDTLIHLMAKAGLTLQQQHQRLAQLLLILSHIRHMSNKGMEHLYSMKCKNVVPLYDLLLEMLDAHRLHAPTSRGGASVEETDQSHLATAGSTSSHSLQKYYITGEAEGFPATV
Nature of the experiment: Binding affinity to human ER-alpha.

For experiment [5], the target named is Estrogen receptor beta (Homo sapiens, UniProt Q92731). The experiment in a line: Binding affinity to human ER-beta.
Sequence of Estrogen receptor beta (Q92731 whole entry): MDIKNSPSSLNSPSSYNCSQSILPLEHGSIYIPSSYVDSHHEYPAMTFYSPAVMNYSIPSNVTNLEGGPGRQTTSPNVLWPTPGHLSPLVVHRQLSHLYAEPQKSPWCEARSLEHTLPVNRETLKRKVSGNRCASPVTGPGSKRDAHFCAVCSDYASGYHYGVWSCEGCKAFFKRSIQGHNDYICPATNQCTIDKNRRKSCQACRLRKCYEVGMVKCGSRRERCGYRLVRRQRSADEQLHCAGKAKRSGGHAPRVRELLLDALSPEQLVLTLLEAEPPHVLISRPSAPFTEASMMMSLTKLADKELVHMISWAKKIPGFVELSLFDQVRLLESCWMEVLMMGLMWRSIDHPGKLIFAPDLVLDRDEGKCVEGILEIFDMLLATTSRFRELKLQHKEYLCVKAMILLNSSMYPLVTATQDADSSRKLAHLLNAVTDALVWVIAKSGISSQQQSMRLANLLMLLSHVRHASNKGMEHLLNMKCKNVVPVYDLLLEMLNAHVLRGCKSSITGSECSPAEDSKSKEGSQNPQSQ
Experiment [6] addresses T4, Androgen receptor (Homo sapiens, UniProt P10275).
T4 sequence (P10275 whole entry): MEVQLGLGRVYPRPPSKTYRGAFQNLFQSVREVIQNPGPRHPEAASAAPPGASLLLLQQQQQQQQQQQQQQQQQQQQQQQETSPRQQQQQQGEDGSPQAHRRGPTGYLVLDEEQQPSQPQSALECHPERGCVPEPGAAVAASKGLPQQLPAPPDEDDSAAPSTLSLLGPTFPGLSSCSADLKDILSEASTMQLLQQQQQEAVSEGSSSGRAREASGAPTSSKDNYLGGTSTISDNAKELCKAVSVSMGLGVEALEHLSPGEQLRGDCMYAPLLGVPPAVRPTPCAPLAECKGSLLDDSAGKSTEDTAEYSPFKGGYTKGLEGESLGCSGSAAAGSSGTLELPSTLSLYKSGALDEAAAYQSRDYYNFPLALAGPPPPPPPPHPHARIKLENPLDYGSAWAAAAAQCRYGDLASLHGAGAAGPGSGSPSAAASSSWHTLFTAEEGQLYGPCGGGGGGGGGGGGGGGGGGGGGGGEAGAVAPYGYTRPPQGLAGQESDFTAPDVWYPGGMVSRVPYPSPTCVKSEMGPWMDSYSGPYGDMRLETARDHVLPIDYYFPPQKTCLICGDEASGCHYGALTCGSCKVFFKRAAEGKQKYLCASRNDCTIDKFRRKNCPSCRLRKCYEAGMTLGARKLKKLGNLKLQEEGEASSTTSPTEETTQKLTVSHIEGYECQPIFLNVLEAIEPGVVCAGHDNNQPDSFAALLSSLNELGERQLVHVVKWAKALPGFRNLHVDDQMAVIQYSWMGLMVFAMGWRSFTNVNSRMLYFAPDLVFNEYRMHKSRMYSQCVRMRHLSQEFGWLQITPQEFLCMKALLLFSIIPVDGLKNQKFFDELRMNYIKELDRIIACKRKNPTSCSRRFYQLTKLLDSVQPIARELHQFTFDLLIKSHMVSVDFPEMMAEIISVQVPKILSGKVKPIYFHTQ
Nature of the experiment: Binding affinity to human AR.

Experiment [7] has as its target T1, Glucocorticoid receptor. The source holds these as a separate data set.
Description: Transrepression activity at glucocorticoid receptor in human whole blood assessed as repression of IL-1-induced TNF-alpha production after 4 hrs by ELISA

A value given as a limit tells only on which side of the number the result lay.

Consider `CC[C@@]12C[C@@](C)(O)[C@](O)(c3ccc(C)cc3)C[C@H]1CCc1cc(O)ccc12`, for which the IC50 in experiment [1] came out at 1.3 nM; in experiment [2], 12 nM.
On the same counts, the results for `CC[C@@]12C[C@@](C)(O)[C@](O)(CC)C[C@H]1CCc1cc(O)ccc12` (mixture of isomers) are 47 nM and more than 5000 nM.
In the case of `CC[C@@]12C[C@@](C)(O)[C@](O)(c3ccccc3)C[C@H]1CCc1cc(O)ccc12`, the IC50 is 321 nM in experiment [3]; more than 3200 nM in experiment [4]; 0.6 nM in experiment [1]; more than 3200 nM in experiment [5]; 3.5 nM in experiment [2]; 300 nM in experiment [6]. Also, the IC50 in experiment [7] turned out to be 109 nM.
As for `CC[C@@]12C[C@@](C)(O)[C@](O)(c3cccnc3)C[C@H]1CCc1cc(O)ccc12`, the IC50 in experiment [1] turned out to be 22 nM; in experiment [2] it was 80 nM.
Consider `CC[C@@]12C[C@@H](O)[C@](O)(c3ccccc3)C[C@H]1CCc1cc(O)ccc12`, for which the IC50 in experiment [2] was more than 5000 nM.
In the case of `CC[C@@]12C[C@@](C)(O)[C@](O)(c3ccncc3)C[C@H]1CCc1cc(O)ccc12`, the concentration for half-maximal inhibition (IC50) in experiment [1] was 9.1 nM; in experiment [2], 100 nM.
Regarding `CC[C@@]12C[C@@](C)(O)[C@](O)(c3ccccn3)C[C@H]1CCc1cc(O)ccc12`, the IC50 in experiment [1] turned out to be 1.5 nM; in experiment [2], 1.5 nM; in experiment [7], 167 nM.
`CC#C[C@]1(O)C[C@H]2CCc3cc(O)ccc3[C@]2(CC)C[C@@]1(C)O`: the IC50 worked out at 1.5 nM in experiment [1] and 1.9 nM in experiment [2].
On the same counts, the results for `CC[C@@]12C[C@](C)(O)[C@](O)(c3ccccc3)C[C@H]1CCc1cc(O)ccc12` are 38 nM and more than 5000 nM.
Take `CC[C@@]12C[C@@](C)(O)[C@](O)(c3ccccc3)C[C@H]1C=Cc1cc(O)ccc12`: the IC50 turned out to be 0.3 nM in experiment [1], 4 nM in experiment [2] and 400 nM in experiment [7].
The corresponding values for `CC[C@@]12C[C@@](C)(O)[C@](O)(c3nccs3)C[C@H]1CCc1cc(O)ccc12` are 0.79 nM, 1.5 nM and 83 nM.
On the same counts, the results for `CC[C@@]12C[C@@](C)(O)[C@](O)(c3ccccc3)C[C@H]1CC(=O)c1cc(O)ccc12` are 2.5 nM, 5 nM and 72.5 nM.
Consider `CCC[C@]1(O)C[C@H]2CCc3cc(O)ccc3[C@]2(CC)C[C@@]1(C)O`, for which the results for the IC50 in experiment [1] and in experiment [2] were 20.1 nM and more than 5000 nM, respectively.
On the same counts, the results for `C=CC[C@]1(O)C[C@H]2CCc3cc(O)ccc3[C@]2(CC)C[C@@]1(C)O` are 35.4 nM and more than 5000 nM.
Consider `CC[C@@]12C[C@](O)(CC)[C@](O)(c3ccccc3)C[C@H]1CCc1cc(O)ccc12`, for which the IC50 stood at 1.2 nM in experiment [1] and 6 nM in experiment [2].
On to `CC[C@@]12CC[C@](O)(c3ccccc3)C[C@H]1CCc1cc(O)ccc12`, for which the IC50 in experiment [2] was more than 5000 nM.
In the case of `CC[C@@]12C[C@@](C)(O)[C@](O)(c3ccccc3)C[C@H]1C=C(C)c1cc(O)ccc12`, the IC50 in experiment [1] is 0.67 nM; in experiment [2] it was 0.6 nM; in experiment [7] it was 43 nM.
`Cc1noc(=O)c2ccc(NC(=O)C(O)(CC3(c4cc(F)ccc4Cl)CCC3)C(F)(F)F)cc12` (racemic): the IC50 was 0.2 nM in experiment [3]; more than 100000 nM in experiment [4]; 0.4 nM in experiment [1]; more than 100000 nM in experiment [5]; 7.5 nM in experiment [2]; 40 nM in experiment [6]. In addition, the IC50 in experiment [7] worked out at 1000 nM.
In the case of `CC[C@@]12C[C@@](C)(O)[C@](O)(c3ccccc3)C[C@H]1C[C@@H](O)c1cc(O)ccc12`, the IC50 was 79 nM in experiment [1] and more than 5000 nM in experiment [2].
In experiment [1], `CC[C@@]12C[C@@](C)(O)[C@@](C)(O)C[C@H]1CCc1cc(O)ccc12` showed an IC50 of 211 nM.
In the case of `CC[C@@]12C[C@@](C)(O)[C@](O)(c3ccccc3)C[C@H]1CC(=O)c1cc(OC(=O)c3ccccc3)ccc12`, the IC50 in experiment [1] was found to be 1.7 nM; in experiment [2] it was 28 nM.
The corresponding values for `C=C[C@]1(O)C[C@H]2CCc3cc(O)ccc3[C@]2(CC)C[C@@]1(C)O` (mixture of isomers) are 12.1 nM and 650 nM.
On the same counts, the results for `C=C[C@@]1(O)C[C@@]2(CC)c3ccc(O)cc3CC[C@@H]2C[C@@]1(O)c1ccccc1` are 5.2 nM and more than 5000 nM.
On the same counts, the results for `C/C=C/[C@]1(O)C[C@H]2CCc3cc(O)ccc3[C@]2(CC)C[C@@]1(C)O` (mixture of isomers) are 2.1 nM and 6 nM.

The term IC50 denotes the concentration that gives 50% inhibition.

These data come from ChEMBL document CHEMBL3421549, “2-Aryl-3-methyloctahydrophenanthrene-2,3,7-triols as potent dissociated glucocorticoid receptor agonists” (J Med Chem, 2015).
